Numbers after ± are expanded uncertainties.
What was measured:
[1] = mn = molality of the nth substance listed, in mol/kg; conditions: 101 kPa, Liquid, Vibrating tube method, m2 = 0
[2] = 101 kPa, Liquid, Vibrating tube method

SMILES | mass density ([1]; 283.15 K) | mass density ([1]; 293.15 K) | mass density ([1]; 298.15 K) | mass density ([1]; 303.15 K) | mass density ([1]; 313.15 K) | mass density ([1]; 323.15 K) | mass density ([1]; 333.15 K) | mass density ([2]; 283.15 K) | mass density ([2]; 293.15 K) | mass density ([2]; 298.15 K) | mass density ([2]; 303.15 K) | mass density ([2]; 313.15 K) | mass density ([2]; 323.15 K) | mass density ([2]; 333.15 K)
CC(=O)N(C)C [N,N-dimethylethanamide] + O=S(=O)([O-])C(F)(F)F.[Na+] | 950.04 ± 0.3 kg/m3 | 940.83 ± 0.3 kg/m3 | 936.22 ± 0.3 kg/m3 | 931.61 ± 0.3 kg/m3 | 922.35 ± 0.3 kg/m3 | 913.08 ± 0.3 kg/m3 | 903.76 ± 0.3 kg/m3 | – | – | – | – | – | – | –
CN(C)C=O [dimethylformamide] | – | – | – | – | – | – | – | 958.07 ± 0.3 kg/m3 | 948.56 ± 0.3 kg/m3 | 943.79 ± 0.31 kg/m3 | 939.01 ± 0.31 kg/m3 | 929.43 ± 0.31 kg/m3 | 919.81 ± 0.31 kg/m3 | 910.11 ± 0.31 kg/m3
CC(=O)N(C)C [N,N-dimethylethanamide] | – | – | – | – | – | – | – | 950.04 ± 0.3 kg/m3 | 940.83 ± 0.3 kg/m3 | 936.22 ± 0.3 kg/m3 | 931.61 ± 0.3 kg/m3 | 922.35 ± 0.3 kg/m3 | 913.08 ± 0.3 kg/m3 | 903.76 ± 0.3 kg/m3
CN(C)C=O [dimethylformamide] + O=S(=O)([O-])C(F)(F)F.[Na+] | 958.07 ± 0.3 kg/m3 | 948.56 ± 0.3 kg/m3 | 943.79 ± 0.31 kg/m3 | 939.01 ± 0.31 kg/m3 | 929.43 ± 0.31 kg/m3 | 919.81 ± 0.31 kg/m3 | 910.11 ± 0.31 kg/m3 | – | – | – | – | – | – | –
